Legend:
[1] = test system: pseudorabies virus (PRV); set-up: species or system pigs; conditions: pig, in vivo
[2] = molecular target: CRSBP-1 (Mus musculus, UniProt Q8BHC0); conditions: cited from earlier work
[3] = test system: lymphatic endothelial cell (LEC) monolayers; conditions: cited from earlier work
[4] = test system: lymphatic intercellular junctions; conditions: mouse, in vivo; cited from earlier work

Sequence of CRSBP-1 (Q8BHC0 24-318): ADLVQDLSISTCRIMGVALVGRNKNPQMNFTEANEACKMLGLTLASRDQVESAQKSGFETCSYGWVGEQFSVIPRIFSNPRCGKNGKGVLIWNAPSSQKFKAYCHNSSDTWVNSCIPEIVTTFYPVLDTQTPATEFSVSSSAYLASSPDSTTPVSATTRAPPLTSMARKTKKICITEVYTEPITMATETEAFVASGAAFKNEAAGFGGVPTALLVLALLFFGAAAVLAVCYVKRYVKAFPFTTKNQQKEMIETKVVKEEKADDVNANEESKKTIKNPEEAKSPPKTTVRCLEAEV

Substance: YVRVRRPPKGKHRKFKHTH [PDGF peptide]
- increase in serum antibody titer as compared to vaccine only [1]: ~4 fold
- binding to CRSBP-1 [2]: high affinity
- disruption of VE-cadherin-mediated discontinuous intercellular adhesion and opening of intercellular junctions [3]: induce disruption

Substance: polyarginine
- activity in control experiments as compared to VEGF peptide and PDGF peptide [4]: very weak activity

Substance: KKSVRGKGKGQKRKRKKSRYKSWSV [VEGF peptide]
- binding to CRSBP-1 [2]: high affinity
- disruption of VE-cadherin-mediated discontinuous intercellular adhesion and opening of intercellular junctions [3]: induce disruption

Substance: polylysine
- activity in control experiments as compared to VEGF peptide and PDGF peptide [4]: very weak activity
